Patent publication US20120219550A1, “PHARMACEUTICAL COMBINATIONS COMPRISING A PYRIDO [4,3-D] PYRIMIDINE DERIVED HSP90-INHIBITOR AND A HER2 INHIBITOR” (NOVARTIS AG, priority 2008, published 2012)

Test system: BT-474 breast cancer xenograft
Test: Antitumor effect in BT-474 human breast carcinoma xenograft model in nude mice
Type: in vivo
Details: BT-474 xenograft, 21 days treatment, i.v.
Description: The estrogen receptor positive cell line BT-474 (ATCC, number HTB-20) which is a human breast carcinoma cell line is used. The cells are grown in DMEM high glucose (4.5 g/l) supplemented with 10% FCS, […] L-glutamine and 1% sodium pyruvate.
In preparation for cell inoculation, each mouse is subcutaneously implanted on the upper dorsal side with a 17β-Estradiol pellet (25 microgram/day; 90 day release) using a trocar needle. BT-474 cells (5×10̂6) are injected in 200 microliter Matrigel:HBSS (1:1 vol) (BD Matrigel™ Basement Membrane Matrix). The injection site is subcutaneously in the right flank. Treatment with compound I is initiated when the average tumor volume reached approximately 100 mm^3 Tumor growth is monitored at regular intervals. The xenograft tumor sizes is measured manually with calipers and the tumor volume is estimated using the formula: […], where width (W) and length (L) are the two largest diameters. Results are presented as mean±SEM. Tumor data are analyzed by ANOVA with post hoc Dunnet's test for comparison of treatment versus control group.
As a measure of efficacy the % T/C value is calculated at the end of the experiment according to:
(Δtumor volumetreated/Δtumor volumecontrol)*100
Where Δtumor volumes represent the mean tumor volume on the evaluation day minus the mean tumor volume at the start of the experiment.
Tumor regression is presented as the relative absolute change in tumor volume from the start to the end of the experiment (−(Tumor volumeevaluation day−Tumor volumestart day)/Tumor volumestart day*100).
The antitumor effect of compound I and trastazumab is evaluated in the BT-474 xenograft model (FIG. 1). The treatment period is 21 days and each treatment group consists of 8 tumor bearing animals. The tumor sizes in the treatment groups are compared to those of the vehicle treated groups and the effect is expressed as % T/C or regression when applicable. […] Compound I is administered i.v. once per week at a dose of 15 mg/kg.

## CCNC(=O)c1noc(-c2cc(C(C)C)c(O)cc2O)c1-c1ccc(CN2CCOCC2)cc1 [Compound I, 5-(2,4-Dihydroxy-5-isopropyl-phenyl)-4-(4-morpholin-4-ylmethyl-phenyl)-isoxazole-3-carboxylic acid ethylamide]
  antitumor effect in words (comparison with vehicle or single agents): no statistically significant difference from vehicle treated animals
Trastuzumab 5 mg/kg 2 qw, Compound I 15 mg/kg qw, end of experiment
  T/C (%): 96%
Trastuzumab 5 mg/kg twice per week, Compound I 15 mg/kg qw
  reduction of tumor burden: 4%
Mean ± SEM, Trastuzumab 5 mg/kg 2 qw, Compound I 15 mg/kg qw
  ΔTumor volume (mm^3): 929 ± 152 mm^3
